Measurements published in US11241441B2, “Formulations of lixivaptan for the treatment of polycystic disease” (PALLADIO BIOSCIENCES, INC., priority 2017, dated 2022).

Assays:
[1] = Measured Log P; assay type: physicochemical
[2] = 90/30 mg split daily dosing; cited from earlier work
[3] = Shoaf, 2013; cited from earlier work

logP [1]: > 3
Compound: Cc1ccccc1C(=O)Nc1ccc(C(=O)N2CCCC(O)c3cc(Cl)ccc32)c(C)c1 (stereo not drawn) [tolvaptan]
individuals with ALT elevations (reported by Woodhead) [2]: approximately 8%
exposure in subjects with impaired renal function compared to healthy individuals [3]: increased exposure
